Source: publication PMC6538953, “Metal Ions Activate the Human Taste Receptor TAS2R7” (Chemical Senses, 2019)
Positions count from the first letter of the chain named.

What was measured:
[1] = molecular target: T1, human TAS2R7 E264^7.32K mutant (Homo sapiens, UniProt Q9NYW3, E264K); assay: Calcium mobilization assay, TAS2R7 mutant E264K; format: cell-based; settings: 20 mM metal ions except 0.16 mM Al2(SO4)3; cromolyn 10 mM; Figure 6B
T1 construct: signal peptide: first 45 amino acid residues of rat somatostatin receptor 3 (N); expressed in transfected cells; host or cells: HEK293 PEAKrapid (ATCC CRL-2828), transient, co-transfected with Gα16-gust44
T1 sequence (Q9NYW3 1-318 E264K): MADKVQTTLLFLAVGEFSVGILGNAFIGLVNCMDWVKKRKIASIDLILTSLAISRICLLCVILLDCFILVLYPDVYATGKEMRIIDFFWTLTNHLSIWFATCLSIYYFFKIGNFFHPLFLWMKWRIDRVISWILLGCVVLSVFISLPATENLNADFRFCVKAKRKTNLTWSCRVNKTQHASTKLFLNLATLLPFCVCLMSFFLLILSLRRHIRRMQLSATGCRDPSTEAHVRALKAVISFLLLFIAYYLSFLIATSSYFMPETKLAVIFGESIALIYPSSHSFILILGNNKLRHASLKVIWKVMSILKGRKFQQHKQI
Text: (§1) The coding sequences of human TAS2Rs were amplified from human genomic DNA, then subcloned into pcDNA3.1(+) vector, with the herpes simplex virus glycoprotein D epitope (HSV) at the C-terminal and a signal peptide consisting of the first 45 amino acid residues of the rat somatostatin receptor 3 at the N-terminal, essentially as described previously ([Bufe et al. 2002]). Point mutations in human TAS2R7 (NCBI Reference Sequence: NP_076408.1) were constructed by site-directed mutagenesis. All the constructs were confirmed by Sanger sequencing.
Human embryonic kidney 293 (PEAKrapid, ATCC # CRL-2828) cells were cultured in Opti-MEM medium with 4% fetal bovine serum. One day before transfection, cells were seeded on a 96-well plate at a density of 25 000 per well. Cells were then transiently transfected with a TAS2R construct (0.1 µg/well) along with a G protein Gα16-gust44 (0.1 µg/well) construct by Lipofectamine 2000 (0.5 µl/well). For controls, only Gα16-gust44 was used (mock transfection). Twenty-four hours after transfection, cells were washed with HBSS including 10 mM HEPES and loaded with Fluo-4 in the dark for 1 h. After incubation, cells were washed 2 times with HBSS (including 10 mM HEPES), incubated in the dark for another 30 min, and then washed with assay solution once more before running the assay using a FlexStation III reader. Relative fluorescence units (excitation at 494 nm, emission at 516 nm, and auto cutoff at 515 nm) were read every 2 s for 2 min. Calcium mobilization traces were recorded.
Calcium mobilization traces were raw data obtained from single wells. Changes in fluorescence (ΔF) were calculated as the peak fluorescence minus baseline fluorescence ([Lei et al. 2015]). The calcium mobilization was quantified as the percentage of change (ΔF) relative to baseline (F). […] Calcium mobilization traces and bar graphs along with dose-dependent plots were all generated by GraphPad Prism 7. Analysis of variance with Dunnett’s multiple comparisons test was used for statistical analysis. *P < 0.05.
To assess the importance of these residues, we performed site-directed mutagenesis. We mutated the negatively charged residues E16^1.42, E264^7.32, and E271^7.39 to Q (glutamine), K (lysine), or L (leucine). The facing H94^3.37 was mutated to F (phenylalanine). HEK293 cells that expressed mutant receptors along with Gα16-gust44 were examined for their responses to metal ions (20 mM for all except 0.16 mM Al2(SO4)3) and cromolyn (10 mM, as a positive control) to assess receptor’s function. To determine the expression level of each receptor, we stained the wild-type or mutant receptor-transfected cells using an anti-HSV antibody since all the receptors are tagged with HSV at c-terminal. […]

[2] = molecular target: T2, human TAS2R7 E271^7.39 to glutamine mutant (Homo sapiens, UniProt Q9NYW3, E271Q); assay: Calcium mobilization assay, TAS2R7 mutant E271Q; format: cell-based; settings: 20 mM metal ions except 0.16 mM Al2(SO4)3; cromolyn 10 mM; Figure 6C
T2 construct: signal peptide: first 45 amino acid residues of rat somatostatin receptor 3 (N); expressed in transfected cells; host or cells: HEK293 PEAKrapid (ATCC CRL-2828), transient, co-transfected with Gα16-gust44
T2 sequence (Q9NYW3 1-318 E271Q): T1 sequence (Q9NYW3 1-318 E264K) with K264E, E271Q
Text: as §1
Human embryonic kidney 293 (PEAKrapid, ATCC # CRL-2828) cells were cultured in Opti-MEM medium with 4% fetal bovine serum. […] After incubation, cells were washed 2 times with HBSS (including 10 mM HEPES), incubated in the dark for another 30 min, and then washed with assay solution once more before running the assay using a FlexStation III reader. Relative fluorescence units (excitation at 494 nm, emission at 516 nm, and auto cutoff at 515 nm) were read every 2 s for 2 min. Calcium mobilization traces were recorded.
Calcium mobilization traces were raw data obtained from single wells. Changes in fluorescence (ΔF) were calculated as the peak fluorescence minus baseline fluorescence ([Lei et al. 2015]). The calcium mobilization was quantified as the percentage of change (ΔF) relative to baseline (F). […]

human TAS2R7 = molecular target: T3, human TAS2R7 (Homo sapiens, UniProt Q9NYW3); set-up: method as in Meyerhof et al. 2010; settings: ref Meyerhof et al. 2010; cited from earlier work
T3 construct: first 45 residues of rat somatostatin receptor 3 (signal peptide) (N); expressed in transfected cells; host or cells: HEK293 (PEAKrapid, ATCC CRL-2828)
T3 sequence (Q9NYW3 1-318): T1 sequence (Q9NYW3 1-318 E264K) with K264E

Response of E264K mutant receptor [1]: reduced
Response of E271 to glutamine mutant receptor [2]: slightly reduced responses
Structure (SMILES): O=C(O)c1cc(=O)c2c(OCC(O)COc3cccc4oc(C(=O)O)cc(=O)c34)cccc2o1 [cromolyn, reference compound]
TAS2R7 reported to respond to bitter compounds (human TAS2R7): respond
